Data on seven compounds can be found in patent publication US20060111305A1, “Metabolites of certain [1,4]diazepino[6,7,1-ij]quinoline derivatives and methods of preparation and use thereof” (Wyeth, priority 2004, published 2006).

The nature of series [1]: Rat urinary excretion and metabolite profiles after single oral 5 mg/kg [14C]DCDQ. In kind it is in vivo, Sprague-Dawley rats. The note with it: for Chromatographic distribution of radioactivity in male rat urine / Percentage of dose for urinary metabolites in rats: oral 5 mg/kg, mean n = 3; for radioactive dose recovered in urine: male rats. The procedure:
At sacrifice, blood samples were collected by cardiac puncture into tubes containing EDTA as the anticoagulant and placing them on ice. Aliquots of 50 μL were removed for combustion and determination of radioactivity content. Plasma was immediately obtained from the remaining blood by centrifugation at 4° C. Brains were excised after perfusion with 50 mL of chilled sterile saline. Urine samples were collected on dry ice at intervals of 0-8 and 8-24 hour post-dosing. Feces were collected at intervals of 0-8 and 8-24 hr post-dosing at room temperature and were homogenized as described previously. The biological specimens and aliquots of the dosing solution at pre- and post-dose were stored at approximately −70° C. until analyzed.
Plasma (20 μL) and urine (50 μL) aliquots were analyzed for radioactivity concentrations. Radioactivity determinations of dose, plasma and urine were made with a Tri-Carb Model 3100 TR/LL liquid scintillation counter (LSC) (Perkin Elmer) using 10 mL of Ultima Gold as the scintillation fluid.
Urine was analyzed for radioactivity concentration as and analyzed for metabolite profiles by direct injection onto the HPLC column. LC/MS analyses for metabolite identification were also carried out with urine samples.
A Waters model 2690 HPLC system (Waters Corp., Milford, Mass.) with a built-in autosampler was used for analysis. Separations were accomplished on a Phenomenex Luna C18(2) column (150×2.0 mm, 5 μm) (Phenomenex, Torrance, Calif.). The sample chamber of the autosampler was maintained at 4° C., while the column was at ambient temperature of about 20° C. A variable wavelength UV detector set to monitor 250 nm and a Flo-One β Model A525 radioactivity detector described above were used for data acquisition. The HPLC mobile phase consisted of 10 mM ammonium acetate, pH 4.5 (A) and methanol (B), and was delivered at 0.2 mL/min. Chromatographic condition A was used for dose analysis, while condition B was used for analysis of urine and plasma, brain and fecal extracts.

The nature of series [2]: Metabolite profiles of DCDQ in human plasma and urine by LC/MS (Table 33). In kind it is in vivo, healthy human subjects. More on the design: key to Matrix (in which DCDQ / metabolite was characterized by LC/MS): P = plasma; U = urine. The note with it: for Matrix (in which DCDQ / metabolite was characterized by LC/MS): human plasma and urine, healthy subjects receiving DCDQ. The protocol:
Drug administration and specimen collection were performed in a randomized, double-blinded, placebo-controlled, ascending single dose study of the safety, tolerability, pharmacokinetics, and pharmacodynamics of DCDQ administered orally to healthy subjects and subjects with schizophrenia and schizoaffective disorder. The specimens were stored at approximately −70° C. until analysis for metabolite profiles and for ratios of carbamoyl glucuronide (M6) to DCDQ.
Two subjects with medium and high exposure to DCDQ in the 25 mg multiple ascending dose study were also analyzed by LC/MS for metabolite profiles. The 8 hr plasma samples collected on day 1 and day 14 from subjects 9 and 41 were processed and analyzed as described below. No internal standard was added to the samples analyzed for metabolite profiles.
LC/MS System 1 was used for analysis of plasma and urine samples for metabolite characterization. The HPLC equipment used with this LC/MS System consisted of an Agilent Model 1100 HPLC system (Agilent Technologies, Palo Alto, Calif.) including an autosampler, binary pump and diode array UV detector. The UV detector was set to monitor 210 to 350 nm. The HPLC mobile phase consisted of 10 mM ammonium acetate, pH 4.5 (A) and methanol (B), and was delivered at 0.2 mL/min. The linear mobile phase gradient (HPLC Gradient 1) is shown below. During LC/MS sample analysis, up to 6 min of the initial flow was diverted away from the mass spectrometer prior to evaluation of metabolites.
The mass spectrometer used for metabolite characterization with LC/MS System 1 was a Finnigan LCQ-Deca ion trap mass spectrometer (Thermo Electron, San Jose, Calif.). This mass spectrometer was equipped with an electrospray ionization (ESI) interface and operated in the positive ionization mode. Settings for the LCQ mass spectrometer are listed below.
LC/MS System 2 was used to provide additional MS/MS data for characterization of DCDQ metabolites in urine. The HPLC equipment used with LC/MS System 2 consisted of a Waters model 2695 HPLC system (Waters Corp., Milford, Mass.). It was equipped with a built-in autosampler and a model 996 diode array UV detector. The UV detector was set to monitor 210-400 nm. The HPLC column, mobile phases, flow rate, diversion of flow away from the mass spectrometer and gradient were as described above for LC/MS System 1. The column temperature was 25° C.
The mass spectrometer used for metabolite characterization with LC/MS System 2 was a Micromass Quattro Micro triple quadrupole mass spectrometer (Waters Corp.). This mass spectrometer was equipped with an electrospray interface and operated in the positive ionization mode. Settings for this mass spectrometer are listed below.

Series [3] is described as follows: Metabolites of DCDQ generated by liver microsomes and hepatocytes, LC/MS characterization (Table 6). The class given is in vitro ADME. The note with it: MM mouse, RM rat, DM dog, HM human liver microsomes; HH human hepatocytes. The source says:
An Agilent Model 1100 HPLC system (Agilent Technologies, Palo Alto, Calif.) including an autosampler and diode array UV detector was used for LC/MS analysis. The UV detector was set to monitor 200 to 400 nm. For selected LC/MS analysis, radiochromatograms were acquired using a β-Ram model 3 radioactivity flow detector (IN/US Systems Inc., Tampa, Fla.) equipped with a solid scintillant flow cell. Separations were accomplished on a Phenomenex Luna C18(2) column (2×150 mm, 5 μm) under the same conditions as described above.
The mass spectrometer used for metabolite characterization was a Micromass Q-TOF-2 quadrupole time-of-flight hybrid mass spectrometer ([…].). The mass spectrometer was equipped with an electrospray ionization (ESI) interface and operated in the positive ionization mode. Collision energy settings of 5 and 30 eV were used for full MS and MS/MS scans, respectively. Settings for the mass spectrometer are listed below.
Mass spectra were obtained by LC/MS and LC/MS/MS analysis for DCDQ and its metabolites.
A general note: Microsomes from liver hold many membrane-bound enzymes, among them those of drug oxidation.

Take `c1cc2c3c(c1)[C@H]1CCC[C@H]1CN3CCNC2` [DCDQ, (9aR,12aS)-4,5,6,7,9,9a,10,11,12,12a-decahydro-cyclopenta[c][1,4]diazepine[6,7,1-ij]quinoline, reference compound]: the “Chromatographic distribution of radioactivity in male rat urine” value (from here on “Chromatographic distribution”) was 1.29% in series [1] (0-8 hr) and 1.46% in series [1] (8-24 hr). Also, the “Percentage of dose for urinary metabolites in rats” value (shortened to “Percentage of dose”) came to 0.42% in series [1] (0-8 hr) and 0.51% in series [1] (8-24 hr). The “Matrix (in which DCDQ / metabolite was characterized by LC/MS)” value in series [2] is on record as “P, U”. The Source entry in series [3] is on record as “MM, RM, DM, HM, HH”.
On to `OC1CN2C[C@@H]3CCC[C@@H]3c3cccc(c32)CN1` (stereo partly drawn) [Metabolite M1, hydroxy DCDQ], for which the figures for the “Chromatographic distribution” value in series [1] (0-8 hr) and in series [1] (8-24 hr) were 26.9% and 22.5%, respectively. The “Percentage of dose” value in series [1] (0-8 hr) is recorded as 8.67%; in series [1] (0-24 hr), 16.4%; in series [1] (8-24 hr) it was 7.74%. In series [2], the “Matrix (in which DCDQ / metabolite was characterized by LC/MS)” value is listed as “P, U”. Further, the Source entry in series [3] is reported as “HM, HH”.
Take `OC1[C@@H]2CCC[C@@H]2c2cccc3c2N1CCNC3` (stereo partly drawn) [Metabolite M2, hydroxy DCDQ]: the entries for the “Chromatographic distribution” value in series [1] (0-8 hr) and in series [1] (8-24 hr) were 9.51% and 5.83%, respectively. For the same compound, the entries for the “Percentage of dose” value in series [1] (0-8 hr), in series [1] (0-24 hr) and in series [1] (8-24 hr) were 3.16%, 5.09% and 1.94%, respectively. The Source entry in series [3] is on record as “MM, RM, DM, HM, HH”.
On to `[O-][N+]12CCN=Cc3cccc(c31)[C@H]1CCC[C@H]1C2` (stereo partly drawn) [Metabolite M5, DCDQ imine N-oxide], for which the “Matrix (in which DCDQ / metabolite was characterized by LC/MS)” value in series [2] is given as “P”. Further, the Source result in series [3] is “DM, HM, HH”.
Consider `O=C(O)[C@H]1O[C@@H](OC(=O)N2CCN3C[C@@H]4CCC[C@@H]4c4cccc(c43)C2)[C@H](O)[C@@H](O)[C@@H]1O` [Metabolite M6, carbamoyl glucuronide of DCDQ], for which the “relative abundance in human plasma” value in series [2] (all dose groups, single and multiple dose studies) is listed as “predominant drug-related component”. In addition, the “Matrix (in which DCDQ / metabolite was characterized by LC/MS)” value in series [2] is reported as “P, U”. In series [2] (in vivo), the “relative abundance in human urine” value is “predominant drug-related component”. For the same compound, the Source entry in series [3] was “DM, HM, HH”.
As for `O=C1CC[C@@H]2c3cccc4c3N(CCNC4)C[C@H]12` [Metabolite M7, 17-keto DCDQ], the “Chromatographic distribution” value was 9.68% in series [1] (0-8 hr) and 10.1% in series [1] (8-24 hr). In addition, the “Percentage of dose” value in series [1] (0-8 hr) came to 3.16%; in series [1] (0-24 hr), 6.60%; in series [1] (8-24 hr), 3.44%.
Take `c1cc2c3c(c1)[C@H]1CCC[C@H]1CN3CCNC2` [[^14C]DCDQ]: the “radioactive dose recovered in urine” value in series [1] (0-8 hour period) is given as 32.5%; in series [1] (8-24 hour period), 34.2%; in series [1] (first 24 hours post-dose), 66.7±5.0%.
